Laboratory results published in ChEMBL document CHEMBL2321732, “Synthesis and evaluation of novel 2,3,5-triaryl-4H,2,3,3a,5,6,6a-hexahydropyrrolo[3,4-d]isoxazole-4,6-diones for advanced glycation end product formation inhibitory activity” (Bioorg Med Chem Lett, 2013).

Assay: Antiglycation activity assessed as inhibition of glucose-mediated advanced glycation end product formation after 30 hrs by fluorescence spectrophotometry in presence of bovine serum albumin
Type: physicochemical

With `Cc1ccc(N2C(=O)[C@@H]3[C@@H](ON(c4ccccc4)[C@H]3c3ccccc3O)C2=O)cc1` the IC50 was 75 µM.
Work on `O=C(O)c1ccc(N2C(=O)[C@@H]3[C@@H](ON(c4ccccc4)[C@H]3c3ccccc3O)C2=O)cc1` (relative stereo) yielded an IC50 of 63.9 µM.
With `O=C(O)c1ccc(N2C(=O)[C@@H]3[C@@H](ON(c4ccccc4)[C@H]3c3ccccc3Cl)C2=O)cc1` (relative stereo) the IC50 was 127 µM.
Compound `O=C1[C@H]2[C@@H](c3ccccc3Cl)N(c3ccccc3)O[C@H]2C(=O)N1c1ccccc1` (relative stereo) has an IC50 of 7.4 µM.
With `O=C1[C@@H]2[C@@H](ON(c3ccccc3)[C@H]2c2ccccc2Cl)C(=O)N1c1ccccc1` (relative stereo) the IC50 was 30.9 µM.
`Cc1ccc(N2C(=O)[C@H]3[C@@H](c4ccccc4Cl)N(c4ccccc4)O[C@H]3C2=O)cc1` (relative stereo) showed an IC50 of 7.18 µM.
Work on `Cc1ccc(N2C(=O)[C@@H]3[C@@H](ON(c4ccccc4)[C@H]3c3ccccc3Cl)C2=O)cc1` (relative stereo) yielded an IC50 of 23.9 µM.
Work on `COc1ccc(N2C(=O)[C@H]3[C@@H](c4ccccc4Cl)N(c4ccccc4)O[C@H]3C2=O)cc1` (relative stereo) yielded an IC50 of 8.63 µM.
Work on `COc1ccc(N2C(=O)[C@@H]3[C@@H](ON(c4ccccc4)[C@H]3c3ccccc3Cl)C2=O)cc1` (relative stereo) yielded an IC50 of 24.2 µM.
For `O=C(O)c1ccc(N2C(=O)[C@H]3[C@@H](c4ccccc4Cl)N(c4ccccc4)O[C@H]3C2=O)cc1` (relative stereo), the IC50 was 33 µM.
With `O=C1[C@H]2[C@@H](c3ccccc3O)N(c3ccccc3)O[C@H]2C(=O)N1c1ccccc1` (relative stereo) the IC50 was 25.9 µM.
For `O=C1[C@@H]2[C@@H](ON(c3ccccc3)[C@H]2c2ccccc2O)C(=O)N1c1ccccc1` (relative stereo), the IC50 was 64.8 µM.
In the case of `Cc1ccc(N2C(=O)[C@H]3[C@@H](c4ccccc4O)N(c4ccccc4)O[C@H]3C2=O)cc1` (relative stereo), the IC50 is reported as 18.8 µM.
`COc1ccc(N2C(=O)[C@H]3[C@@H](c4ccccc4O)N(c4ccccc4)O[C@H]3C2=O)cc1` (relative stereo) gave an IC50 of 26.6 µM.
Compound `COc1ccc(N2C(=O)[C@@H]3[C@@H](ON(c4ccccc4)[C@H]3c3ccccc3O)C2=O)cc1` (relative stereo) has an IC50 of 90.1 µM.
`O=C(O)c1ccc(N2C(=O)[C@H]3[C@@H](c4ccccc4O)N(c4ccccc4)O[C@H]3C2=O)cc1` (relative stereo) gave an IC50 of 24.4 µM.
In the case of `N=C(N)NN` [PIMAGEDINE], the IC50 is reported as 40.5 µM.
